The results in this text go back to ChEMBL document CHEMBL1127240, “Structure-activity relationships of taxol: synthesis and biological evaluation of C2 taxol analogs” (Bioorg Med Chem Lett, 1994).

The structures appear in SMILES notation. Some results are limits rather than exact numbers.

The target of assay [1] is Tubulin alpha chain (Sus scrofa) (UniProt P02550). Briefly: Compound was tested for effective concentration for tubulin polymerization expressed as ratio of compound relative to taxol (EC0.01 at 5 uM). The format is functional.
The subject of assay [2] is HCT-116. Description: Compound was tested for inhibition of proliferation of human colon cancer cell line (HCT116). Type of assay: functional, cell-based.

Chain of Tubulin alpha chain (Sus scrofa) (P02550 whole entry, looked up): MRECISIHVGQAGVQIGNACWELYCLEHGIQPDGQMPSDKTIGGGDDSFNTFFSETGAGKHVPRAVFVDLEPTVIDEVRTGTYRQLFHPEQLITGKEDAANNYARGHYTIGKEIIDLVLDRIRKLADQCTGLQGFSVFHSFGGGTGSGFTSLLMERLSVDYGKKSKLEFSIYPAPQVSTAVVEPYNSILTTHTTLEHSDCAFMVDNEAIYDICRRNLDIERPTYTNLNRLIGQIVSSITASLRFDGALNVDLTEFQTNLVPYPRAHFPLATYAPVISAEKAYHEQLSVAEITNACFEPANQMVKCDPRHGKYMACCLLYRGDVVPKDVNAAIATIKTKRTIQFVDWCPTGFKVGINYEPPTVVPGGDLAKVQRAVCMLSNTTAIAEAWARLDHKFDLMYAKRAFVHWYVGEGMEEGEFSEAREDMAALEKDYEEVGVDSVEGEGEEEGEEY

Broadly, the IC50 is the concentration that inhibits the measured activity by half. Consider `COc1ccc(C(=O)O[C@H]2C3[C@](C)(C(=O)[C@H](OC(C)=O)C4=C(C)[C@@H](OC(=O)[C@H](O)[C@@H](NC(=O)c5ccccc5)c5ccccc5)C[C@]2(O)C4(C)C)[C@@H](O)C[C@H]2OC[C@@]32OC(C)=O)cc1` (some centres not stated), for which, in assay [1], the Ratio is over 250. This compound also showed a concentration for half-maximal inhibition (IC50) in assay [2] of over 88 nM.

For the compound `CC(=O)O[C@H]1C(=O)[C@@]2(C)C([C@H](OC(=O)C3CCCCC3)[C@]3(O)C[C@H](OC(=O)[C@H](O)[C@@H](NC(=O)c4ccccc4)c4ccccc4)C(C)=C1C3(C)C)[C@]1(OC(C)=O)CO[C@@H]1C[C@@H]2O` (some centres not stated), the Ratio in assay [1] worked out at 130. For the same compound, the 50% inhibitory concentration (IC50) in assay [2] is over 91 nM.

Compound `CC(=O)O[C@H]1C(=O)[C@@]2(C)[C@H]([C@H](OC(=O)c3ccccc3)[C@]3(O)C[C@H](OC(=O)[C@H](O)[C@@H](NC(=O)c4ccccc4)c4ccccc4)C(C)=C1C3(C)C)[C@]1(OC(C)=O)CO[C@@H]1C[C@@H]2O` [PACLITAXEL] returned a 50% inhibitory concentration (IC50) in assay [2] of 2 nM. This counts as single-digit nanomolar.

Turning to `CC(=O)O[C@H]1C(=O)[C@@]2(C)C([C@H](OC(=O)c3ccc([N+](=O)[O-])cc3)[C@]3(O)C[C@H](OC(=O)[C@H](O)[C@@H](NC(=O)c4ccccc4)c4ccccc4)C(C)=C1C3(C)C)[C@]1(OC(C)=O)CO[C@@H]1C[C@@H]2O` (some centres not stated), the Ratio in assay [1] was over 250. Further, the IC50 in assay [2] was over 85 nM.
